The record followed here is ChEMBL document CHEMBL4831516, “Development of Membrane-Active Honokiol/Magnolol Amphiphiles as Potent Antibacterial Agents against Methicillin-Resistant Staphylococcus aureus (MRSA)” (J Med Chem, 2021).

Molecules are shown by their SMILES. In brackets after ≈: the same amount, converted by molar mass.

The subject of series [1] is Streptococcus mutans. The series can be described thus: Antibacterial activity against Streptococcus mutans. It is filed as functional.
Series [2] has as its system Staphylococcus aureus. The series can be described thus: Antibacterial activity against methicillin-resistant Staphylococcus aureus clinical isolate M-19 assessed as inhibition of visible growth incubated for 16 to 18 hrs by CLSI method. Particulars: time 16-18 hrs, read-out: MIC100. It is filed as functional.
Series [3] relates to Staphylococcus aureus. Kind of series: Antibacterial activity against Staphylococcus aureus ATCC29213 assessed as inhibition of visible growth incubated for 16 to 18 hrs by CLSI method. It is filed as functional. Particulars: time 16-18 hrs, read-out: MIC100.
Series [4] has as its system Staphylococcus aureus. Kind of series: Antibacterial activity against methicillin-resistant Staphylococcus aureus clinical isolate M-17 assessed as inhibition of visible growth incubated for 16 to 18 hrs by CLSI method. In kind it is functional. The note with it: time 16-18 hrs, read-out: MIC100.
The test system of series [5] is Staphylococcus aureus. The series can be described thus: Antibacterial activity against methicillin-resistant Staphylococcus aureus clinical isolate M-20 assessed as inhibition of visible growth incubated for 16 to 18 hrs by CLSI method. In kind it is functional. Particulars: time 16-18 hrs, read-out: MIC100.
For series [6], the system named is Staphylococcus aureus. The series can be described thus: Antibacterial activity against methicillin-resistant Staphylococcus aureus clinical isolate M-15 assessed as inhibition of visible growth incubated for 16 to 18 hrs by CLSI method. It is filed as functional. Particulars: time 16-18 hrs, read-out: MIC100.
Series [7] deals with Staphylococcus aureus. The series can be described thus: Antibacterial activity against methicillin-resistant Staphylococcus aureus clinical isolate M-13 assessed as inhibition of visible growth incubated for 16 to 18 hrs by CLSI method. The note with it: time 16-18 hrs, read-out: MIC100. In kind it is functional.
The subject of series [8] is Stenotrophomonas maltophilia. The series can be described thus: Antibacterial activity against Stenotrophomonas maltophilia assessed as inhibition of visible growth incubated for 16 to 18 hrs by CLSI method. The note with it: time 16-18 hrs, read-out: MIC100. In kind it is functional.
For series [9], the system named is Micrococcus luteus. Kind of series: Antibacterial activity against Micrococcus luteus assessed as inhibition of visible growth incubated for 16 to 18 hrs by CLSI method. In kind it is functional. The note with it: time 16-18 hrs, read-out: MIC100.
The test system of series [10] is Enterococcus faecalis. Kind of series: Antibacterial activity against Enterococcus faecalis ATCC29212 assessed as inhibition of visible growth incubated for 16 to 18 hrs by CLSI method. It is filed as functional. Particulars: time 16-18 hrs, read-out: MIC100.
In series [11] the test system is Salmonella enterica. Kind of series: Antibacterial activity against Salmonella enterica 8389 assessed as inhibition of visible growth incubated for 16 to 18 hrs by CLSI method. In kind it is functional. Particulars: time 16-18 hrs, read-out: MIC100.
Series [12] has as its system Staphylococcus aureus. The series can be described thus: Antibacterial activity against methicillin-resistant Staphylococcus aureus clinical isolate M-16 assessed as inhibition of visible growth incubated for 16 to 18 hrs by CLSI method. In kind it is functional. The note with it: time 16-18 hrs, read-out: MIC100.
Series [13] relates to Staphylococcus aureus. Kind of series: Antibacterial activity against methicillin-resistant Staphylococcus aureus clinical isolate M-12 assessed as inhibition of visible growth incubated for 16 to 18 hrs by CLSI method. In kind it is functional. Particulars: time 16-18 hrs, read-out: MIC100.
Series [14] in a line: Selectivity index, HC50 for hemolytic activity in sheep RBC to MIC for antibacterial activity against Staphylococcus aureus ATCC29213. In kind it is toxicity. Particulars: sheep red blood cells (erythrocytes), read-out: Selectivity Index.
Series [15] in a line: Hemolytic activity in sheep RBC assessed as hemolysis incubated for 1 hr. In kind it is ADME, cell-based, Ovis aries, Erythrocyte. The note with it: sheep red blood cells (erythrocytes).
The test system of series [16] is Staphylococcus aureus. Kind of series: Antibacterial activity against methicillin-resistant Staphylococcus aureus clinical isolate M-14 assessed as inhibition of visible growth incubated for 16 to 18 hrs by CLSI method. It is filed as functional. The note with it: time 16-18 hrs, read-out: MIC100.
The subject of series [17] is Salmonella enterica. The series can be described thus: Antibacterial activity against Salmonella enterica 349812 assessed as inhibition of visible growth incubated for 16 to 18 hrs by CLSI method. In kind it is functional. The note with it: time 16-18 hrs, read-out: MIC100.
Series [18] deals with Staphylococcus aureus. Kind of series: Antibacterial activity against methicillin-resistant Staphylococcus aureus clinical isolate M-11 assessed as inhibition of visible growth incubated for 16 to 18 hrs by CLSI method. It is filed as functional. The note with it: time 16-18 hrs, read-out: MIC100.
Series [19] relates to Staphylococcus aureus. Kind of series: Antibacterial activity against methicillin-resistant Staphylococcus aureus clinical isolate M-18 assessed as inhibition of visible growth incubated for 16 to 18 hrs by CLSI method. Particulars: time 16-18 hrs, read-out: MIC100. In kind it is functional.
The test system of series [20] is Bacillus subtilis. The series can be described thus: Antibacterial activity against Bacillus subtilis assessed as inhibition of visible growth incubated for 16 to 18 hrs by CLSI method. In kind it is functional. The note with it: time 16-18 hrs, read-out: MIC100.
Series [21] has as its system Escherichia coli. The series can be described thus: Antibacterial activity against Escherichia coli ATCC25922 assessed as inhibition of visible growth incubated for 16 to 18 hrs by CLSI method. It is filed as functional. Particulars: time 16-18 hrs, read-out: MIC100.

`CC(C)(C)c1ccc(CCc2ccc(C(C)(C)C)c(O)c2)cc1O` gave an MIC in series [1] of 8 µg/mL (≈ 24.5 µM).

For orientation: HC50 means the concentration giving 50% haemolysis. As to `C=CCc1ccc(O)c(-c2cc(CC=C)ccc2OCCC[N+](C)(C)CC(=O)NCCCCCC)c1.[Br-]`, the MIC in series [2] turned out to be 2 µg/mL; in [3], 2 µg/mL; in [4], 2 µg/mL; in series [5] it was 2 µg/mL; in [6], 2 µg/mL; in series [7], 4 µg/mL. Also, the MIC in series [8] worked out at 16 µg/mL; in [9] it was 0.5 µg/mL; in [10], 2 µg/mL; in [11], 16 µg/mL; in series [12] it was 2 µg/mL; in series [13] it was 2 µg/mL. Moreover, the MIC was 2 µg/mL in [16]; 16 µg/mL in series [17]; 4 µg/mL in series [18]; 2 µg/mL in series [19]; 0.5 µg/mL in series [20]; 8 µg/mL in series [21]. Moreover, in series [14], the selectivity ratio came to 372. Moreover, the HC50 at 1 h in series [15] was determined as 743 µg/mL.

`C=CCc1ccc(OCC[N+](C)(C)CC(=O)NCCCC)c(-c2ccc(OCC[N+](C)(C)CC(=O)NCCCC)c(CC=C)c2)c1.[Br-].[Br-]`: the MIC in series [2] stood at 4 µg/mL; in series [3], 4 µg/mL; in series [4], 8 µg/mL; in series [5], 8 µg/mL; in series [6], 8 µg/mL; in series [7] it was 4 µg/mL. Also, the MIC in series [8] was 32 µg/mL; in series [9], 4 µg/mL; in [10] it was 8 µg/mL; in [11], 32 µg/mL; in series [12] it was 8 µg/mL; in [13], 4 µg/mL. Also, the MIC in [16] came out at 4 µg/mL; in series [17] it was 64 µg/mL; in series [18], 4 µg/mL; in series [19] it was 4 µg/mL; in series [20], 2 µg/mL; in [21], 64 µg/mL. Besides, the selectivity ratio in series [14] is 208. The HC50 at 1 h in series [15] amounted to 832 µg/mL.

Consider `C=CCc1ccc(O)c(-c2cc(CC=C)ccc2OCC[N+](C)(C)CC(=O)N(CCCC)CCCC)c1.[Br-]`, for which the MIC in series [2] turned out to be 2 µg/mL; in series [3], 2 µg/mL; in [4] it was 2 µg/mL; in series [5], 2 µg/mL; in [6] it was 4 µg/mL; in [7], 4 µg/mL. In addition, the MIC in series [8] was determined as 16 µg/mL; in series [9], 2 µg/mL; in series [10] it was 4 µg/mL; in series [11] it was 16 µg/mL; in [12], 2 µg/mL; in [13], 4 µg/mL. Also, the MIC was 4 µg/mL in [16]; 16 µg/mL in series [17]; 4 µg/mL in series [18]; 2 µg/mL in [19]; 1 µg/mL in series [20]; 8 µg/mL in series [21]. The selectivity ratio in [14] is 393. Moreover, the HC50 at 1 h in series [15] came out at 786 µg/mL.

`C=CCc1ccc(O)c(-c2cc(CC=C)ccc2OCC[N+](C)(C)CC(=O)NCCCCCC)c1.[Br-]`: the MIC in series [2] amounted to 8 µg/mL; in [3], 4 µg/mL; in series [4], 8 µg/mL; in [5] it was 4 µg/mL; in [6], 4 µg/mL; in [7] it was 8 µg/mL. The MIC in [8] was determined as 64 µg/mL; in [9], 4 µg/mL; in series [10], 16 µg/mL; in series [11], 64 µg/mL; in series [12], 4 µg/mL; in [13], 8 µg/mL. Further, the MIC was 4 µg/mL in series [16]; 64 µg/mL in series [17]; 8 µg/mL in series [18]; 8 µg/mL in series [19]; 4 µg/mL in series [20]; 32 µg/mL in series [21]. For the same compound, the selectivity ratio in series [14] amounted to 181. The HC50 at 1 h in series [15] came out at 723 µg/mL.
